From BindingDB's records for doi:10.1021/acs.biochem.7b00041 (North Carolina State University, 2017)

Each compound was assayed against T1, Dehaloperoxidase B (Amphitrite ornata, UniProt Q9NAV7) (assay: Resonance Raman Assay). Conditions: pH 7.
T1 sequence (Q9NAV7 whole entry): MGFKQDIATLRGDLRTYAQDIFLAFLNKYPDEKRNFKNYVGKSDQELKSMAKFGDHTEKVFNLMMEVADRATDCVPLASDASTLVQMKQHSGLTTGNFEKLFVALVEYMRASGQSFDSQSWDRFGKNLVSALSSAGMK
Protocol: Samples for solution resonance Raman spectroscopic studies were prepared withfinal concentrations of 75 μM WT DHP B and 3.75 mM azole in 100 mM KPi (pH 7 or 9) containing 10% MeOH (v/v) and then transferred to a 5 mm outside diameter glass NMR tube. Anaerobic samples were prepared inside a glovebox in the same fashion using septum-capped NMR tubes. Spectra were recorded by Soret band excitation (400−430 nm, 60 mW power) as previously described. [Barrios et al., J. Am. Chem. Soc., 136:7914-7925]

Row | Compound | Kd
1 | c1c[nH]cn1 | 52 µM
2 | 1,2,3-benzotriazole::Benzotriazole (Bta) | 82 µM
3 | c1ccc2[nH]cnc2c1 [1H-1,3-benzodiazole] | 110 µM
